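Cells were grown in 96-well plates and exposed to each compound for 48 hours at five concentrations; endpoints were interpolated linearly between bracketing concentrations, or set to the highest concentration if not reached. TGI is the concentration that stops growth completely.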
How the values were obtained:
Assay in all cases: growth of human tumour cells (NCI), 48 h
786-0 renal = system: 786-0 renal
CCRF-CEM leukemia = system: CCRF-CEM leukemia
HCT-116 colon = system: HCT-116 colon
KM12 colon = system: KM12 colon
MDA-MB-231 breast = system: MDA-MB-231 breast
OVCAR-3 ovarian = system: OVCAR-3 ovarian
PC-3 prostate = system: PC-3 prostate
SK-MEL-5 melanoma = system: SK-MEL-5 melanoma
SNB-19 CNS = system: SNB-19 CNS
U251 CNS = system: U251 CNS

Measured: TGI

COc1c(C2(c3ccc(F)cc3)SCCCS2)c(=O)c1=O
> 100 µM: all assays above

Cc1c(C)c(C)c(-n2c(=O)n(C)c(=O)n2C(C)(C)C)c(C)c1C
> 100 µM: all assays above

Reference: PubChem BioAssay (NCI)
